{"source": "patent US20240132484A1", "about": "“BROAD SPECTRUM ANTIVIRAL COMPOUNDS TARGETING THE SKI COMPLEX” (priority 2020, published 2024)", "key": {"[1]": {"tested_on": "cells (nuclei count)"}, "[2]": {"tested_on": "SARS2", "format": "cell-based, SARS-CoV-2"}}, "data": [{"smiles": "CC1=C(C(=O)NCc2ccccc2)C(c2scc3c2OCCO3)NC(=O)N1", "note": "(centres unmarked) [SILCS66]", "values": [{"measurement": "Relative cell count to DMSO controls, Average 1 μM", "setting": "[1]; 1 μM, toxicity data, 100=DMSO control", "value": 98.81}, {"measurement": "Relative cell count to DMSO controls, Average 5 μM", "setting": "[1]; 5 μM, toxicity data, 100=DMSO control", "value": 109.01}, {"measurement": "Relative cell count to DMSO controls, Average 10 μM", "setting": "[1]; 10 μM, toxicity data, 100=DMSO control", "value": 93.98}, {"measurement": "Relative cell count to DMSO controls, Average 25 μM", "setting": "[1]; 25 μM, toxicity data, 100=DMSO control", "value": 90.79}, {"measurement": "Relative cell count to DMSO controls, Average 50 μM", "setting": "[1]; 50 μM, toxicity data, 100=DMSO control", "value": 84.65}, {"measurement": "Relative cell count to DMSO controls, Average (for correlation analysis)", "setting": "[1]; average value over the 5 tested concentrations (1 to 50 uM)", "value": 95.45}, {"measurement": "Percentage Inhibition Average 1 μM", "setting": "[2]; SARS2, 1 μM", "value": "−3.65", "unit": "%"}, {"measurement": "Screening data (Relative infection to DMSO controls) Average 1 μM", "setting": "[2]; SARS2, 1 μM, 100=DMSO control", "value": 103.65}, {"measurement": "Percentage Inhibition Average 5 μM", "setting": "[2]; SARS2, 5 μM", "value": 38.92, "unit": "%"}, {"measurement": "Screening data (Relative infection to DMSO controls) Average 5 μM", "setting": "[2]; SARS2, 5 μM, 100=DMSO control", "value": 61.08}, {"measurement": "Percentage Inhibition Average 10 μM", "setting": "[2]; SARS2, 10 μM", "value": "−7.16", "unit": "%"}, {"measurement": "Screening data (Relative infection to DMSO controls) Average 10 μM", "setting": "[2]; SARS2, 10 μM, 100=DMSO control", "value": 107.16}, {"measurement": "Percentage Inhibition Average 25 μM", "setting": "[2]; SARS2, 25 μM", "value": "−12.41", "unit": "%"}, {"measurement": "Screening data (Relative infection to DMSO controls) Average 25 μM", "setting": "[2]; SARS2, 25 μM, 100=DMSO control", "value": 112.41}, {"measurement": "Percentage Inhibition Average 50 μM", "setting": "[2]; SARS2, 50 μM", "value": "−28.18", "unit": "%"}, {"measurement": "Screening data (Relative infection to DMSO controls) Average 50 μM", "setting": "[2]; SARS2, 50 μM, 100=DMSO control", "value": 128.18}, {"measurement": "Average (relative infection to DMSO over the 5 tested concentrations)", "setting": "[2]; SARS2, average over 1 to 50 uM, 100=DMSO control", "value": 102.50}]}]}
